Assay results: ChEMBL document CHEMBL3044945, “Synthesis of 1,3,5-trisubstituted pyrazoline nucleus containing compounds and screening for antimicrobial activity” (2012)
Converted amounts (≈) assume the structure as drawn.

Legend:
Assay type in all cases: functional
Bacillus subtilis [1] = test: Antibacterial activity against Bacillus subtilis MTCC 441 at 250 ug/ml after 48 hr by cup-plate method; conditions: MTCC 441, 48 h, read-out: DIZ
Penicillium chrysogenum [2] = test: Antifungal activity against Penicillium chrysogenum MTCC 161 at 750 ug/ml after 48 hr by cup-plate method; conditions: MTCC 161, 48 h, read-out: DIZ
Escherichia coli [3] = test: Antibacterial activity against Escherichia coli MTCC 1573 at 100 ug/ml after 48 hr by cup-plate method; conditions: MTCC 1573, 48 h, read-out: DIZ
Penicillium chrysogenum [4] = test: Antifungal activity against Penicillium chrysogenum MTCC 161 at 1250 ug/ml after 48 hr by cup-plate method; conditions: MTCC 161, 48 h, read-out: DIZ
Staphylococcus aureus [5] = test: Antibacterial activity against Staphylococcus aureus MTCC 1430 after 24 to 48 hr by tube dilution method
Micrococcus luteus [6] = test: Antibacterial activity against Micrococcus luteus MTCC 1538 at 1250 ug/ml after 48 hr by cup-plate method; conditions: MTCC 1538, 48 h, read-out: DIZ
Bacillus subtilis [7] = test: Antibacterial activity against Bacillus subtilis MTCC 441 at 1250 ug/ml after 48 hr by cup-plate method; conditions: MTCC 441, 48 h, read-out: DIZ
Escherichia coli [8] = test: Antibacterial activity against Escherichia coli MTCC 1573 after 24 to 48 hr by tube dilution method
Escherichia coli [9] = test: Antibacterial activity against Escherichia coli MTCC 1573 at 750 ug/ml after 48 hr by cup-plate method; conditions: MTCC 1573, 48 h, read-out: DIZ
Penicillium chrysogenum [10] = test: Antifungal activity against Penicillium chrysogenum MTCC 161 at 500 ug/ml after 48 hr by cup-plate method; conditions: MTCC 161, 48 h, read-out: DIZ
Bacillus pumilus [11] = test: Antibacterial activity against Bacillus pumilus MTCC 1456 at 250 ug/ml after 48 hr by cup-plate method; conditions: MTCC 1456, 48 h, read-out: DIZ
Pseudomonas aeruginosa [12] = test: Antibacterial activity against Pseudomonas aeruginosa MTCC 424 after 24 to 48 hr by tube dilution method
Penicillium chrysogenum [13] = test: Antifungal activity against Penicillium chrysogenum MTCC 161 at 100 ug/ml after 48 hr by cup-plate method; conditions: MTCC 161, 48 h, read-out: DIZ
Pseudomonas fluorescens [14] = test: Antibacterial activity against Pseudomonas fluorescens MTCC 2421 at 1000 ug/ml after 48 hr by cup-plate method; conditions: MTCC 2421, 48 h, read-out: DIZ
Staphylococcus aureus [15] = test: Antibacterial activity against Staphylococcus aureus MTCC 1430 at 750 ug/ml after 48 hr by cup-plate method; conditions: MTCC 1430, 48 h, read-out: DIZ
Aspergillus niger [16] = test: Antifungal activity against Aspergillus niger MTCC 2546 at 250 ug/ml after 48 hr by cup-plate method; conditions: MTCC 2546, 48 h, read-out: DIZ
Pseudomonas fluorescens [17] = test: Antibacterial activity against Pseudomonas fluorescens MTCC 2421 at 250 ug/ml after 48 hr by cup-plate method; conditions: MTCC 2421, 48 h, read-out: DIZ
Aspergillus niger [18] = test: Antifungal activity against Aspergillus niger MTCC 2546 at 500 ug/ml after 48 hr by cup-plate method; conditions: MTCC 2546, 48 h, read-out: DIZ
Bacillus subtilis [19] = test: Antibacterial activity against Bacillus subtilis MTCC 441 at 1000 ug/ml after 48 hr by cup-plate method; conditions: MTCC 441, 48 h, read-out: DIZ
Bacillus pumilus [20] = test: Antibacterial activity against Bacillus pumilus MTCC 1456 after 24 to 48 hr by tube dilution method
Bacillus pumilus [21] = test: Antibacterial activity against Bacillus pumilus MTCC 1456 at 1000 ug/ml after 48 hr by cup-plate method; conditions: MTCC 1456, 48 h, read-out: DIZ
Pseudomonas fluorescens [22] = test: Antibacterial activity against Pseudomonas fluorescens MTCC 2421 after 24 to 48 hr by tube dilution method
Aspergillus niger [23] = test: Antifungal activity against Aspergillus niger MTCC 2546 after 24 to 48 hr by tube dilution method
Micrococcus luteus [24] = test: Antibacterial activity against Micrococcus luteus MTCC 1538 at 750 ug/ml after 48 hr by cup-plate method; conditions: MTCC 1538, 48 h, read-out: DIZ
Staphylococcus aureus [25] = test: Antibacterial activity against Staphylococcus aureus MTCC 1430 at 1000 ug/ml after 48 hr by cup-plate method; conditions: MTCC 1430, 48 h, read-out: DIZ
Bacillus pumilus [26] = test: Antibacterial activity against Bacillus pumilus MTCC 1456 at 750 ug/ml after 48 hr by cup-plate method; conditions: MTCC 1456, 48 h, read-out: DIZ
Pseudomonas aeruginosa [27] = test: Antibacterial activity against Pseudomonas aeruginosa MTCC 424 at 500 ug/ml after 48 hr by cup-plate method; conditions: MTCC 424, 48 h, read-out: DIZ
Pseudomonas fluorescens [28] = test: Antibacterial activity against Pseudomonas fluorescens MTCC 2421 at 100 ug/ml after 48 hr by cup-plate method; conditions: MTCC 2421, 48 h, read-out: DIZ
Pseudomonas fluorescens [29] = test: Antibacterial activity against Pseudomonas fluorescens MTCC 2421 at 1250 ug/ml after 48 hr by cup-plate method; conditions: MTCC 2421, 48 h, read-out: DIZ
Pseudomonas aeruginosa [30] = test: Antibacterial activity against Pseudomonas aeruginosa MTCC 424 at 250 ug/ml after 48 hr by cup-plate method; conditions: MTCC 424, 48 h, read-out: DIZ
Staphylococcus aureus [31] = test: Antibacterial activity against Staphylococcus aureus MTCC 1430 at 250 ug/ml after 48 hr by cup-plate method; conditions: MTCC 1430, 48 h, read-out: DIZ
Bacillus subtilis [32] = test: Antibacterial activity against Bacillus subtilis MTCC 441 at 750 ug/ml after 48 hr by cup-plate method; conditions: MTCC 441, 48 h, read-out: DIZ
Staphylococcus aureus [33] = test: Antibacterial activity against Staphylococcus aureus MTCC 1430 at 500 ug/ml after 48 hr by cup-plate method; conditions: MTCC 1430, 48 h, read-out: DIZ
Pseudomonas aeruginosa [34] = test: Antibacterial activity against Pseudomonas aeruginosa MTCC 424 at 100 ug/ml after 48 hr by cup-plate method; conditions: MTCC 424, 48 h, read-out: DIZ
Bacillus pumilus [35] = test: Antibacterial activity against Bacillus pumilus MTCC 1456 at 500 ug/ml after 48 hr by cup-plate method; conditions: MTCC 1456, 48 h, read-out: DIZ
Pseudomonas aeruginosa [36] = test: Antibacterial activity against Pseudomonas aeruginosa MTCC 424 at 750 ug/ml after 48 hr by cup-plate method; conditions: MTCC 424, 48 h, read-out: DIZ
Micrococcus luteus [37] = test: Antibacterial activity against Micrococcus luteus MTCC 1538 after 24 to 48 hr by tube dilution method
Pseudomonas fluorescens [38] = test: Antibacterial activity against Pseudomonas fluorescens MTCC 2421 at 500 ug/ml after 48 hr by cup-plate method; conditions: MTCC 2421, 48 h, read-out: DIZ
Escherichia coli [39] = test: Antibacterial activity against Escherichia coli MTCC 1573 at 250 ug/ml after 48 hr by cup-plate method; conditions: MTCC 1573, 48 h, read-out: DIZ
Micrococcus luteus [40] = test: Antibacterial activity against Micrococcus luteus MTCC 1538 at 1000 ug/ml after 48 hr by cup-plate method; conditions: MTCC 1538, 48 h, read-out: DIZ
Penicillium chrysogenum [41] = test: Antifungal activity against Penicillium chrysogenum MTCC 161 after 24 to 48 hr by tube dilution method
Aspergillus niger [42] = test: Antifungal activity against Aspergillus niger MTCC 2546 at 1000 ug/ml after 48 hr by cup-plate method; conditions: MTCC 2546, 48 h, read-out: DIZ
Pseudomonas fluorescens [43] = test: Antibacterial activity against Pseudomonas fluorescens MTCC 2421 at 750 ug/ml after 48 hr by cup-plate method; conditions: MTCC 2421, 48 h, read-out: DIZ
Escherichia coli [44] = test: Antibacterial activity against Escherichia coli MTCC 1573 at 1000 ug/ml after 48 hr by cup-plate method; conditions: MTCC 1573, 48 h, read-out: DIZ

**Q.** Which results are given for O=[N+]([O-])c1ccc(C2CC(c3cccc4ccccc34)=NN2c2ccccc2)cc1 (centres undefined)?
**A.** zone of inhibition at 250 µg/mL (Bacillus subtilis [1]): 14 mm; zone of inhibition at 750 µg/mL (Penicillium chrysogenum [2]): 15 mm; zone of inhibition at 100 µg/mL (Escherichia coli [3]): 9 mm; zone of inhibition at 1250 µg/mL (Penicillium chrysogenum [4]): 18 mm; MIC (Staphylococcus aureus [5]): 150 µg/mL (≈ 381 µM); zone of inhibition at 1250 µg/mL (Micrococcus luteus [6]): 17 mm; zone of inhibition at 1250 µg/mL (Bacillus subtilis [7]): 21 mm; MIC (Escherichia coli [8]): 50 µg/mL (≈ 127 µM); zone of inhibition at 750 µg/mL (Escherichia coli [9]): 13 mm; zone of inhibition at 500 µg/mL (Penicillium chrysogenum [10]): 13 mm; zone of inhibition at 250 µg/mL (Bacillus pumilus [11]): 9 mm; MIC (Pseudomonas aeruginosa [12]): 50 µg/mL (≈ 127 µM); zone of inhibition at 100 µg/mL (Penicillium chrysogenum [13]): 10 mm; zone of inhibition at 1000 µg/mL (Pseudomonas fluorescens [14]): 16 mm; zone of inhibition at 750 µg/mL (Staphylococcus aureus [15]): 12 mm; zone of inhibition at 250 µg/mL (Aspergillus niger [16]): 12 mm; zone of inhibition at 250 µg/mL (Pseudomonas fluorescens [17]): 9 mm; zone of inhibition at 500 µg/mL (Aspergillus niger [18]): 13 mm; zone of inhibition at 1000 µg/mL (Bacillus subtilis [19]): 19 mm; MIC (Bacillus pumilus [20]): 150 µg/mL (≈ 381 µM); zone of inhibition at 1000 µg/mL (Bacillus pumilus [21]): 16 mm; MIC (Pseudomonas fluorescens [22]): 30 µg/mL (≈ 76.2 µM); MIC (Aspergillus niger [23]): 30 µg/mL (≈ 76.2 µM); zone of inhibition at 750 µg/mL (Micrococcus luteus [24]): 11 mm; zone of inhibition at 1000 µg/mL (Staphylococcus aureus [25]): 15 mm; zone of inhibition at 750 µg/mL (Bacillus pumilus [26]): 14 mm; zone of inhibition at 500 µg/mL (Pseudomonas aeruginosa [27]): 12 mm; zone of inhibition at 100 µg/mL (Pseudomonas fluorescens [28]): 8 mm; zone of inhibition at 1250 µg/mL (Pseudomonas fluorescens [29]): 19 mm; zone of inhibition at 250 µg/mL (Pseudomonas aeruginosa [30]): 10 mm; zone of inhibition at 250 µg/mL (Staphylococcus aureus [31]): 10 mm; zone of inhibition at 750 µg/mL (Bacillus subtilis [32]): 17 mm; zone of inhibition at 500 µg/mL (Staphylococcus aureus [33]): 11 mm; zone of inhibition at 100 µg/mL (Pseudomonas aeruginosa [34]): 9 mm; zone of inhibition at 500 µg/mL (Bacillus pumilus [35]): 10 mm; zone of inhibition at 750 µg/mL (Pseudomonas aeruginosa [36]): 14 mm; MIC (Micrococcus luteus [37]): 200 µg/mL (≈ 508 µM); zone of inhibition at 500 µg/mL (Pseudomonas fluorescens [38]): 10 mm; zone of inhibition at 250 µg/mL (Escherichia coli [39]): 10 mm; zone of inhibition at 1000 µg/mL (Micrococcus luteus [40]): 13 mm; MIC (Penicillium chrysogenum [41]): 30 µg/mL (≈ 76.2 µM); zone of inhibition at 1000 µg/mL (Aspergillus niger [42]): 21 mm; zone of inhibition at 750 µg/mL (Pseudomonas fluorescens [43]): 13 mm; zone of inhibition at 1000 µg/mL (Escherichia coli [44]): 15 mm
